Laboratory results from patent US8859628B2, “Method for preventing, treating and diagnosing disorders of protein aggregation” (priority 2003, dated 2014).
“Also recorded” adds a separate entry of the source.

Key:
TgCRND8 mice [1] = test: Morris Water Maze, spatial reference memory version, five-day trial paradigm (prevention study); format: in vivo, mouse; details: 6 months of age
Method: Age and sex-matched cohorts of TgCRND8 mice and non-transgenic littermates (n=35 in each cohort) were either untreated, or were given a compound of the present invention as indicated below at 30 mg/day/mouse beginning at age of about 6 weeks. The mice were followed for outcome measures cognitive function, brain Aβ levels, brain pathology, and survival at 4 months and 6 months of age.
Two cohorts entered the study at 6 weeks of age and outcomes were analyzed at 4- and 6-months of age. The body weight, coat characteristics and in cage behavior was monitored. All experiments were performed according to the Canadian Council on Animal Care guidelines.
(§1) Behavioral tests—After non-spatial pre-training, mice underwent place discrimination training for 5 days with 4 trials per day. Behavioral data was analyzed using a mixed model of factorial analysis of variance (ANOVA) with drug or genotype and training sessions as repeated measure factors.
The cognitive function of TgCRND8 mice was assessed using the spatial reference memory version of the Morris Water Maze using a five-day trial paradigm (FIGS. 1C-1H). […] The improved performance was also not due to nutritional or caloric effects because body weight, activity, and coat condition were not different between treated and untreated cohorts. […] Gender effects were not significant between any treatment group (p=0.85).

TgCRND8 mice [2] = test: Cerebral Aβ content (Aβ40 and Aβ42 kits on hemi-brain homogenates); format: in vivo, mouse; set-up: Total Aβ: unit not given here
Method: (§2) Plasma and Cerebral Aβ Content—Hemi-brain samples were homogenized in a buffered sucrose solution, followed by either 0.4% diethylamine/100 mM NaCl for soluble Aβ levels or cold formic acid for the isolation of total Aβ. After neutralization the samples were diluted and analyzed for Aβ40 and Aβ42 using commercially available kits (BIOSOURCE International). Each hemisphere was analyzed in triplicate with the mean±SEM reported. Western blot analyses were performed on all fractions using urea gels for Aβ species analyses. Aβ was detected using 6E10 (BIOSOURCE International) and Enhanced Chemiluminenscence (Amersham).
as §2, with “reported.” for “reported. Western blot analyses were performed on all fractions using urea gels for Aβ species analyses. Aβ was detected using 6E10 (BIOSOURCE International) and Enhanced Chemiluminenscence (Amersham).”

TgCRND8 mice [3] = test: Plasma Aβ levels; format: in vivo, mouse
Method: as §2
as §2, with “reported.” for “reported. Western blot analyses were performed on all fractions using urea gels for Aβ species analyses. Aβ was detected using 6E10 (BIOSOURCE International) and Enhanced Chemiluminenscence (Amersham).”

TgCRND8 mice [4] = test: Cerebral amyloid plaque burden (anti-Aβ immunostaining, image analysis); format: in vivo, mouse; details: for amyloid/plaque burden vs untreated (words) / mean plaque size: prevention
Method: (§3) Cerebral amyloid burden—Brains were removed and one hemisphere was fixed in 4% paraformaldehyde and embedded in paraffin wax in the mid saggital plane. To generate sets of systematic uniform random sections, 5 μm serial sections were collected across the entire hemisphere. Sets of sections at […] intervals were used for analyses (10-14 sections/set). Plaque were identified after antigen retrieval with formic acid, and incubated with primary anti-Aβ antibody (Dako M-0872), followed by secondary antibody (Dako StreptABCcomplex/horseradish kit). End products were visualized with DAB counter-stained with hematoxylin. Amyloid plaque burden was assessed using Leco IA-3001 image analysis software interfaced with Leica microscope and Hitachi KP-M1U CCD video camera. Vascular burden was analyzed similarly and a dissector was used to measure the diameter of affected vessels.
as §3, with “camera.” for “camera. Vascular burden was analyzed similarly and a dissector was used to measure the diameter of affected vessels.”

TgCRND8 mice [5] = test: Gliosis quantitation (GFAP astrocytes, CD68 microglia); format: in vivo, mouse; details: prevention
Description: Gliosis Quantitation—Five randomly selected, evenly spaced, sagittal sections were collected from paraformaldehyde-fixed and frozen hemispheres of treated and control mice. Sections were immunolabelled for astrocytes with anti-rat GFAP IgG2a (Dako; diluted 1:50) and for microglia with anti-rat CD68 IgG2b (Dako; 1:50).
Serial sagittal sections were stained with the astrocytic marker glial fibrillary acidic protein (GFAP) and quantitated for percent brain area covered by astrogliosis.

TgCRND8 mice [6] = test: Vascular amyloid burden; format: in vivo, mouse; details: prevention, 6 months of age
Method: as §3
Alzheimer's disease is characterized by the presence of both parenchymal and vascular amyloid deposits. In untreated 6 month old TgCRND8 mice approximately 0.03% of the brain area is associated with vascular amyloid.

TgCRND8 mice [7] = test: Morris Water Maze, spatial reference memory version, three-day trial paradigm (treatment/reversal study); format: in vivo, mouse; details: for cognitive function, treated TgCRND8 mice vs non-Tg littermates (words): 1 month treatment from 5 months of age, three-day paradigm
Method: A cohort entered the study at 5 months of age and outcomes were analyzed at 6-months of age. The body weight, coat characteristics and in cage behavior was monitored. All experiments were performed according to the Canadian Council on Animal Care guidelines.
(§4) Behavioral Test—Reversal Study—Mice entered the Morris water maze test with a hidden platform on day one without pretraining. Mice were tested for 3 days with six trials per day. On the fourth day, the platform was removed from the pool and each mouse received one 30-s swim probe trial. On the last day the animals underwent a cue test in order to evaluate swimming ability, eye sight and general cognition. The cue test is composed at the platform being placed in a different quadrant than that used for testing and is tagged with a flag. Animals are allowed 60 s to find the platform. […] Behavioural data was analysed using a mixed model of factorial analysis of variance (ANOVA) with drug or genotype and training sessions as repeated measure factors.
The cognitive function of TgCRND8 mice was assessed using the spatial reference memory version of the Morris Water Maze using a three day trial paradigm (FIGS. 4-8).
Behavioural data was analysed using a mixed model of factorial analysis of variance (ANOVA) with drug and genotype as between subject variables and training sessions as within subject variable.
(§5) In these experiments, the dosage and oral administration of compounds, and the behavioral and neurochemical assays were the same as those employed in the above treatment experiments.

non-Tg littermates = test: Morris Water Maze performance of treated non-Tg littermates; format: in vivo, mouse; details: treated vs untreated non-Tg
Method: as §1, §4

amyloid-beta peptide = details: cited from earlier work
TgCRND8 mice [8] = test: Survival census (Kaplan-Meier); format: in vivo, mouse; details: vs untreated TgCRND8
Method: Survival Census—The probability of survival was assessed by the Kaplan-Meier technique, computing the probability of survival at every occurrence of death, thus making it suitable for small sample sizes. For the analyses of survival, 35 mice were used for each treatment group. The comparison between treatments was reported using the Tarone-Ware test.

TgCRND8 mice [9] = details: mouse, in vivo
Description: Animals were sacrificed after one month of treatment and analysed for pathological outcomes.
as §5

Aβ42 = target: T1, Aβ42 (Homo sapiens, UniProt P05067); details: cited from earlier work
T1 construct: The importance of residues 1-42 (Aβ42) in Alzheimer's disease was highlighted

[10] = 1 month treatment from 5 months of age
[11] = 1 month treatment, 30 mg/mouse/day from 5 months, analyzed at 6 months of age
[12] = 4 month prevention, 30 mg/mouse/day from 6 weeks of age
[13] = 6 month prevention, 30 mg/mouse/day from 6 weeks of age
[14] = 28 days treatment from 5 months of age

T1 sequence (P05067 672-713 limits assumed): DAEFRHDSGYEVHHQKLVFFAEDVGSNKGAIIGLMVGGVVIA

OC1C(O)C(O)C(O)C(O)C1O (stereo not drawn) [Epi-Inositol, epi-inositol]
cognitive function, treated vs untreated TgCRND8 mice (words) (TgCRND8 mice [1]): performed significantly better than untreated TgCRND8 mice | Aβ load vs untreated (TgCRND8 mice [2]; [10]): Aβ load was significantly decreased | Total Aβ (TgCRND8 mice [2]; [11]): 17271 ± 415 | Total Aβ (TgCRND8 mice [2]; [12]): 4802 ± 176 | Total Aβ (TgCRND8 mice [2]; [13]): 18464 ± 229 | brain Aβ levels compared with untreated (TgCRND8 mice [2]; prevention, 6 months of age): rose to levels similar to those observed in untreated TgCRND8 mice | Plasma Aβ Levels (TgCRND8 mice [3]; 1 month treatment): 2158 ± 157 pg/mL | effect on plasma Aβ levels in comparison to untreated (words) (TgCRND8 mice [3]; 1 month treatment from 5 months of age, listed as epi-inositol): Neither myo-inositol, epi-inositol nor scyllo-inositol treatment had any effect on plasma Aβ levels | Plasma Aβ Levels (TgCRND8 mice [3]; 4 month prevention): 1082 ± 164 pg/mL | Plasma Aβ Levels (TgCRND8 mice [3]; 6 month prevention): 952 ± 56 pg/mL | effect on plasma Aβ levels in comparison to untreated (words) (TgCRND8 mice [3]; prevention, 4- and 6-months of age): Neither epi-inositol nor scyllo-inositol treatment had any effect on plasma Aβ levels | plaque burden vs untreated (TgCRND8 mice [4]; [10]): not a significant decrease in the mean plaque size | Plaque Area (TgCRND8 mice [4]; [11]): 459706 ± 49966 μm^2 | Plaque Count (TgCRND8 mice [4]; [11]): 1342 ± 114 | Total Plaque Area/Total Brain Area (TgCRND8 mice [4]; [11]): 0.134 ± 0.017% | Plaque Area (TgCRND8 mice [4]; [12]): 65042 ± 5199 μm^2 | Plaque Count (TgCRND8 mice [4]; [12]): 678 ± 64 | Total Plaque Area/Total Brain Area (TgCRND8 mice [4]; [12]): 0.020 ± 0.001% | Plaque Area (TgCRND8 mice [4]; [13]): 380456 ± 13498 μm^2 | Plaque Count (TgCRND8 mice [4]; [13]): 979 ± 32 | Total Plaque Area/Total Brain Area (TgCRND8 mice [4]; [13]): 0.096 ± 0.04% | amyloid/plaque burden vs untreated (words) (TgCRND8 mice [4]; 6 months of age): modest effect on amyloid burden | mean plaque size (TgCRND8 mice [4]; 4 months of age): 95±4.3 μm^2 | mean plaque size (TgCRND8 mice [4]; 6 months of age): 370±9 μm^2 | astrogliosis/gliosis vs untreated (TgCRND8 mice [5]; 6 months of age): decrease in astrogliosis | astrogliosis, percent brain area covered (GFAP) (TgCRND8 mice [5]; 6-months of age): 0.388±0.039% | microglial activation, % brain area (TgCRND8 mice [5]; 6 months): 0.248±0.02% | vascular amyloid burden vs untreated (words) (TgCRND8 mice [6]): No difference could be detected in the vascular amyloid burden | cognitive function, treated TgCRND8 mice vs non-Tg littermates (words) (TgCRND8 mice [7]; listed as epi-inositol): almost significantly different | effect on performance of non-Tg mice (non-Tg littermates): had no effect on the performance of non-Tg mice; also recorded: not effected

O=P(O)(O)O[C@@H]1[C@H](O)[C@H](O)[C@@H](OP(=O)(O)O)[C@H](OP(=O)(O)O)[C@H]1O [inositol-1,4,5-triphosphate]
ability to inhibit amyloid-beta peptide fibrillogenesis (amyloid-beta peptide): found not to be effective

O=P(O)(O)O[C@H]1[C@H](O)[C@@H](O)[C@H](OP(=O)(O)O)[C@@H](O)[C@H]1O [inositol-1,4-bisphosphate]
ability to inhibit amyloid-beta peptide fibrillogenesis (amyloid-beta peptide): found not to be effective

OC[C@@H](O)[C@@H](O)[C@H](O)[C@H](O)CO [mannitol, reference compound]
cognitive function, treated TgCRND8 mice vs non-Tg littermates (words) (TgCRND8 mice [1]): significantly different from mannitol treated non-Tg littermates | cognitive function, treated vs untreated TgCRND8 mice (words) (TgCRND8 mice [1]): had no effect on behavior; also recorded: indistinguishable from untreated TgCRND8 mice | cognitive function, treated vs untreated TgCRND8 mice (words) (TgCRND8 mice [1]; listed as Mannitol): not significantly different from untreated TgCRND8 mice | amyloid/plaque burden vs untreated (words) (TgCRND8 mice [4]; 6 months of age): did not alter the plaque load in TgCRND8 mice | amyloid/plaque burden vs untreated (words) (TgCRND8 mice [4]; 6 months of age, listed as Mannitol): indistinguishable from untreated TgCRND8 mice when plaque count was used as a measure of total plaque burden | effect on survival of TgCRND8 mice (TgCRND8 mice [8]): had no effect on the survival of TgCRND8 mice; also recorded: not significantly different | effect on performance of non-Tg mice (non-Tg littermates): had no effect on the behaviour of non-Tg mice

O=P(O)(O)O[C@@H]1[C@@H](O)[C@H](O)[C@@H](O)[C@H](O)[C@@H]1O [inositol-monophosphate]
ability to inhibit amyloid-beta peptide fibrillogenesis (amyloid-beta peptide): found not to be effective

OC1C(O)C(O)C(O)C(O)C1O (stereo not drawn) [Allo-inositol, allo-inositol]
effect on insoluble Aβ42 or Aβ40 (soluble and insoluble pools) (TgCRND8 mice [2]; [14]): did not significantly alter | reduction of soluble Aβ42 (TgCRND8 mice [2]; [14]): 20% | Brain Aβ42 Insoluble (TgCRND8 mice [2]; allo-inositol study: 1 month treatment (28 days) from 5 months of age, mean ± sem): 16336 ± 910 ng/gm wet brain | effect on plasma Aβ levels in comparison to untreated (words) (TgCRND8 mice [3]; 1 month treatment from 5 months of age, listed as allo-inositol): indistinguishable from untreated TgCRND8 plasma levels | Plasma Aβ Levels (TgCRND8 mice [3]; allo-inositol study: 1 month treatment (28 days) from 5 months of age): 2458 ± 95 pg/mL | cognitive function, treated TgCRND8 mice vs non-Tg littermates (words) (TgCRND8 mice [7]; listed as allo-inositol): still significantly different from that of their non-transgenic littermates | cognitive function, treated vs untreated TgCRND8 mice (words) (TgCRND8 mice [7]; [14]): performed significantly better than untreated TgCRND8 mice | effects on blood chemistry or organ function (TgCRND8 mice [9]): do not exhibit obvious deleterious effects on blood chemistry or organ function | ALP (TgCRND8 mice [9]; po): 95 ± 16 U/L | ALT (TgCRND8 mice [9]; po): 44 ± 4 U/L | Albumin (TgCRND8 mice [9]; po): 32 ± 2 g/L | Bilirubin (TgCRND8 mice [9]; po): 2.9 ± 3 µmol/L | Creatinine (TgCRND8 mice [9]; po): 69 ± 64 µmol/L | Globulin (TgCRND8 mice [9]; po): 17 ± 3 g/L | Glucose (TgCRND8 mice [9]; po): 10 ± 3 mmol/L | Icteria (TgCRND8 mice [9]; po): Normal | Lipemia (TgCRND8 mice [9]; po): Normal | Total protein (TgCRND8 mice [9]; po): 48 ± 2 g/L | Urea (TgCRND8 mice [9]; po): 18.6 ± 13 mmol/L

OC1C(O)C(O)C(O)C(O)C1O (stereo not drawn) [chiro-inositol]
structural transition from random to β-structure in Aβ42 (Aβ42): epi- and scyllo- but not chiro-inositol were able to induce a structural transition
